Test results taken from ChEMBL document CHEMBL4616619, “Acetylene Group, Friend or Foe in Medicinal Chemistry” (J Med Chem, 2020).
≈ marks a conversion by molar mass, not a printed value.

Legend:
[1] = biological target: T1, Amine oxidase [flavin-containing] A (Homo sapiens, UniProt P21397); test: Inhibition of human MAO-A
T1 sequence (P21397 whole entry): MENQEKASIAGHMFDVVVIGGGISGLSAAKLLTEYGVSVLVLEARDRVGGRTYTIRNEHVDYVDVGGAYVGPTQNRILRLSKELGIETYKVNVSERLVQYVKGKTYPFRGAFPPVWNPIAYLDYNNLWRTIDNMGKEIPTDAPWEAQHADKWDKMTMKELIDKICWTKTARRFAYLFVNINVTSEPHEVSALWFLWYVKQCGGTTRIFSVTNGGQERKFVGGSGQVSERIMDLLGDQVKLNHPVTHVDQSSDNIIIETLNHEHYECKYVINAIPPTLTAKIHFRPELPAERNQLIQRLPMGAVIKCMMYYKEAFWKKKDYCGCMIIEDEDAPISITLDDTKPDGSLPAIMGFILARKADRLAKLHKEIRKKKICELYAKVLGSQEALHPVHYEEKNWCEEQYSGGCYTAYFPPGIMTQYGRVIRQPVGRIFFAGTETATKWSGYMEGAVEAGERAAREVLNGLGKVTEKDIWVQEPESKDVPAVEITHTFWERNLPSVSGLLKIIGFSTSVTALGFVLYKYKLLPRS

[2] = Half life in cynomolgus monkey; type: ADME, Macaca fascicularis; settings: in vivo
[3] = biological target: T2, Dihydropyrimidine dehydrogenase [NADP(+)] (Bos taurus) (UniProt Q28007); test: Inactivation of bovine liver DHPDHase assessed as Kinact in presence of NADPH
T2 sequence (whole entry): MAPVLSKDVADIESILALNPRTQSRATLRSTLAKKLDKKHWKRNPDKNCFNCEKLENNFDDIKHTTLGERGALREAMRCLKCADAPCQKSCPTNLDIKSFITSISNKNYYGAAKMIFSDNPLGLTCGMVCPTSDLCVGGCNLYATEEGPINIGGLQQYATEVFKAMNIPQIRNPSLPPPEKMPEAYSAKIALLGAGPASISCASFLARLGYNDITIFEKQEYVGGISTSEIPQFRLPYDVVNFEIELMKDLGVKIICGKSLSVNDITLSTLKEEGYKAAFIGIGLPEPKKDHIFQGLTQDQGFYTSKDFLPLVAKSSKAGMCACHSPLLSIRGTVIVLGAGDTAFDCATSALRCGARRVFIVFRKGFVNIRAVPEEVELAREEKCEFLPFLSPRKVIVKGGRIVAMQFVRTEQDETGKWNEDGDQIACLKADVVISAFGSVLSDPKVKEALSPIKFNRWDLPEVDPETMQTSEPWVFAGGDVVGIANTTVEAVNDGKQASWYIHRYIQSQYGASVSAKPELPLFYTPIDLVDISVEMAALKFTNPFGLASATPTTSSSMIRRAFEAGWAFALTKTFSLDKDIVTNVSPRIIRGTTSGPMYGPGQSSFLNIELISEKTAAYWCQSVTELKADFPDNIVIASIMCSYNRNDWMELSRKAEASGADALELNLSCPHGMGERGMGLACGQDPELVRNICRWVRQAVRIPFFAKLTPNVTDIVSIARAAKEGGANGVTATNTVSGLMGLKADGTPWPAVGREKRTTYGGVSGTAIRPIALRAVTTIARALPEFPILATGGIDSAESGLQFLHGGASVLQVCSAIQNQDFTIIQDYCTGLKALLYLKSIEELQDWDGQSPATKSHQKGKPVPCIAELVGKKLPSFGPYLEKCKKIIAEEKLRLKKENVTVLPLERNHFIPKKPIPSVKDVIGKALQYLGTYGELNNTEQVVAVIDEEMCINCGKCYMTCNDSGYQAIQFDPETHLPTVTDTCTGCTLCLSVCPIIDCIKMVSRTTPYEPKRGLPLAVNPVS

[4] = system: Poliovirus 1; test: Antiviral activity against Poliovirus type 1 Mahoney infected in African green monkey BSC1 cells by crystal violet staining based plaque reduction assay; type: functional, organism-based; settings: Enterovirus C, BSC-1
[5] = Cmax in rhesus monkey at 8 mg/kg, po; type: ADME, organism-based, Macaca mulatta; set-up: dose 8 mg/kg, route oral; settings: in vivo
[6] = system: Human immunodeficiency virus 1; test: Antiviral activity against HIV1 3B infected in human MT2 cells; type: functional, organism-based; settings: Human immunodeficiency virus 1, 3B
[7] = Cytotoxicity against human MT2 cells; type: cell-based
[8] = biological target: Acetylcholinesterase (Homo sapiens, UniProt P22303); test: Inhibition of acetylcholinesterase (unknown origin)
Sequence of Acetylcholinesterase (P22303 whole entry): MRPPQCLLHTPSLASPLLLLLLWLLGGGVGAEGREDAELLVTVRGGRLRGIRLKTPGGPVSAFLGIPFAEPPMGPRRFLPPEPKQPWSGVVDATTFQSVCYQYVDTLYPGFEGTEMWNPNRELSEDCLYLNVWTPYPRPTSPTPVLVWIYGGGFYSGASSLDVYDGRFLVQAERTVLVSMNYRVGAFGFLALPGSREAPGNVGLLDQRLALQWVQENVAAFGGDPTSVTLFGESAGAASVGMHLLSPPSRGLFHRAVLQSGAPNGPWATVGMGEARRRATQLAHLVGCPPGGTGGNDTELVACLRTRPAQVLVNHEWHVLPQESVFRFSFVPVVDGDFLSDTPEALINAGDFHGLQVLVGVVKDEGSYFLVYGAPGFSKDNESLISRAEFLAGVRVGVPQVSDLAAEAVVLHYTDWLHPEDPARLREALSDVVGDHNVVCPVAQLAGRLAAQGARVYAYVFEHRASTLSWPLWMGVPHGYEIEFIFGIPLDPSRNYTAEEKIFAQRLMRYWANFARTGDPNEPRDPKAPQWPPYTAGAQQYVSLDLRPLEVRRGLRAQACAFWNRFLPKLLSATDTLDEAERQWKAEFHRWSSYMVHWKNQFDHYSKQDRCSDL

[9] = biological target: Cholinesterase (Homo sapiens, UniProt P06276); test: Inhibition of butyrylcholinesterase (unknown origin)
Sequence of Cholinesterase (P06276 whole entry): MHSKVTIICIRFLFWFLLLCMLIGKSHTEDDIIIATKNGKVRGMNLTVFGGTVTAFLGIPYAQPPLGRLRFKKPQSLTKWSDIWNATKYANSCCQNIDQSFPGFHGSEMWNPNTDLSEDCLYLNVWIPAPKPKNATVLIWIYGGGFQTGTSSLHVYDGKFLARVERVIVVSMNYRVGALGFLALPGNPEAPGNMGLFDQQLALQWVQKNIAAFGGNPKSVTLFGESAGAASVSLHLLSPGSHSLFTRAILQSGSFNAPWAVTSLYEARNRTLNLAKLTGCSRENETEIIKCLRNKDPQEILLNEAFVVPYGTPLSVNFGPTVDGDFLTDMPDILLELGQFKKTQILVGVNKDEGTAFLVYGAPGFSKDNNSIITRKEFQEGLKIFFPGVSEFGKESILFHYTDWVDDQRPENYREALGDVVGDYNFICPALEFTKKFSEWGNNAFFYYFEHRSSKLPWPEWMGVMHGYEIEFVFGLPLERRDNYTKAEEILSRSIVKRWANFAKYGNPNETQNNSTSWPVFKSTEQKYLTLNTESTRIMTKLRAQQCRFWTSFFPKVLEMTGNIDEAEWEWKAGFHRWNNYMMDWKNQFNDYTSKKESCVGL

[10] = biological target: T3, Thymidine kinase, cytosolic (Homo sapiens, UniProt P04183); test: (§1) Substrate activity at human thymidine kinase 1 assessed as Km incubated for 24 hrs; type: ADME
T3 sequence (P04183 whole entry): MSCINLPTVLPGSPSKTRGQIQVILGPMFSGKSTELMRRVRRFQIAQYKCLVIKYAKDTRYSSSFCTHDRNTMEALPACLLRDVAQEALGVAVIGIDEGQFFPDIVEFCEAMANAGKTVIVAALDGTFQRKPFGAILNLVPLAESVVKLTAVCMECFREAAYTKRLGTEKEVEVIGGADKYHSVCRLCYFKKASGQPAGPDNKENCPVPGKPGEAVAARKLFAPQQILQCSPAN

[11] = Substrate activity at UDP-glucuronosyltransferase in cynomolgus monkey microsomes assessed as Vmax; type: ADME, Macaca fascicularis
[12] = Plasma clearance in iv dosed cynomolgus monkey; type: ADME, organism-based, Macaca fascicularis
[13] = system: Human immunodeficiency virus 1; test: Antiviral activity against HIV-1 3B infected in human MT4 cells incubated for 5 days by MTT assay; type: functional, organism-based; settings: Human immunodeficiency virus 1, 3B, MT4, 120 h
[14] = Cytotoxicity against human MT4 cells; type: cell-based
[15] = Selectivity ratio of CC50 for human MT4 cells to IC50 for HIV-1 3B; type: toxicity; settings: read-out: Ratio CC50/IC50
[16] = Inactivation of CYP2B1 (unknown origin); set-up: species or system Homo sapiens
[17] = organism: Homo sapiens; test: Inactivation of CYP2B1 (unknown origin) assessed as Kinact
[18] = system: rhinovirus B14; test: Antiviral activity against Human rhinovirus 14 infected in HeLa […] cells after 2 days by XTT/PMS assay; type: functional, organism-based; settings: Rhinovirus B, 48 h
[19] = Half life in human plasma at 25 uM after 1 to 3 hrs by reversed-phase HPLC; type: ADME, cell-free
[20] = Thermodynamic aqueous solubility of compound in pH 7 buffer at 1 to 2 mg after 4 hrs by HPLC analysis; type: physicochemical; settings: read-out: Therm_solubility
[21] = Stability in human liver microsomes assessed as compound metabolized at 25 uM after 30 mins in presence of NADPH by HPLC analysis; type: ADME, Microsome; settings: read-out: Drug metabolism
[22] = system: Human rhinovirus sp.; test: Antiviral activity against Human rhinovirus; type: functional, organism-based
[23] = biological target: T1, Amine oxidase [flavin-containing] A; test: Inhibition of human MAO-A using Tyramine hydrochloride as substrate preincubated for 30 mins followed by substrate addition and measured for 1 hr by fluorometric method
[24] = substrate: C#C[C@@]1(CO)C=C[C@H](n2cc(C)c(=O)[nH]c2=O)O1; test: as §1; type: ADME

C#CCN[C@@H]1CCc2ccc(OC(=O)N(C)CC)cc21 [LADOSTIGIL] showed an IC50 [1] of over 100 µM.

Work on CC(C#Cc1ccc(Cc2ccc(F)cc2)s1)N(O)C(N)=O (stereo unspecified) yielded a half-life [2] of 870 min.

Molecule Oc1ncc(/C=C/Br)c(O)n1 has a Kinact [3] of 0.6 min⁻¹.

C#C/C=C(\c1ccccc1)c1ccc2nc(N)n(S(=O)(=O)C(C)C)c2c1 gave an IC50 [4] of 0.02 µg/mL (≈ 0.0547 µM) and a Cmax [5] of 70 to 300 ng/mL.

Cc1cn([C@H]2C=C[C@@](C#N)(CO)O2)c(=O)[nH]c1=O gave an EC50 [6] of 7000 nM and a CC50 [7] of over 100 µM.

N#Cc1cnc(O)nc1O gave a Kinact [3] of 0.78 min⁻¹.

In the case of C#CCNCc1cc2cc(OCc3ccccc3)ccc2[nH]1, the IC50 [8] is reported as over 100 µM and the IC50 [9] is reported as over 100 µM.

Cc1cn([C@H]2C=C[C@@H](CO)O2)c(=O)[nH]c1=O [STAVUDINE] gave an EC50 [6] of 1300 nM, a CC50 [7] of 98 µM and a Km [10] of 133 µM.

With CC(/C=C/c1cccc(Oc2ccc(F)cc2)c1)N(O)C(N)=O (stereo unspecified) the Vmax [11] was 0.19 nmol/min/mg, the clearance [12] was 2 mL/min/kg and the half-life [2] was 282 min.

With O=c1[nH]cc(C(F)(F)F)c(=O)[nH]1 the Kinact [3] was 0.23 min⁻¹.

Molecule C#C[C@]1(CO)O[C@@H](n2cnc3c(N)nc(F)nc32)C[C@@H]1O has an IC50 [13] of 0.3 nM, a CC50 [14] of 19.2 µM and a selectivity ratio [15] of over 60000.

Work on C#CCN(C)[C@H](C)Cc1ccccc1 [SELEGILINE] yielded a Ki [16] of 1000 nM and a Kinact [17] of 0.23 min⁻¹.

C#Cc1c[nH]c(=O)[nH]c1=O gave a Kinact [3] of 5.64 min⁻¹.

With CCOC(=O)/C=C/[C@H](CC1CCNC1=O)NC(=O)[C@H](Cc1ccc(F)c(F)c1)n1cccc(NC(=O)c2cc(C)on2)c1=O (stereo partly specified) the EC50 [18] was 11 nM, the half-life at 25 µM [19] was 84 min and the solubility thermodynamic at 4 h [20] was 25 µg/mL (≈ 40.9 µM). It also gave a metabolised at 0.5 h, 25 µM [21] of 81%.

Work on C#CC[C@@H](C(=O)N[C@H](/C=C/C(=O)OCC)CC1CCNC1=O)n1cccc(NC(=O)c2cc(C)on2)c1=O (stereo partly specified) yielded an EC50 [22] of 58 nM, a half-life at 25 µM [19] of 396 min and a solubility thermodynamic at 4 h [20] of 377 µg/mL (≈ 720 µM). The metabolised at 0.5 h, 25 µM [21] was 40%.

For O=c1[nH]cc(Br)c(=O)[nH]1, the Kinact [3] was 0.42 min⁻¹.

With CC(C#Cc1cccc(Oc2ccc(F)cc2)c1)N(O)C(N)=O (stereo unspecified) [FENLEUTON] the Vmax [11] was 0.05 nmol/min/mg, the clearance [12] was 1.3 mL/min/kg and the half-life [2] was 330 min.

In the case of C#C[C@@]1(CO)C=C[C@H](n2cc(C)c(=O)[nH]c2=O)O1 [CENSAVUDINE], the EC50 [6] is reported as 250 nM and the CC50 [7] is reported as over 256 µM.

C#CCN(C)c1nc(NCCCCC2CCN(Cc3ccccc3)CC2)c(C#N)cc1C#N showed an IC50 [23] of over 100 nM.

Work on CC#Cn1ccc(=O)[nH]c1=O yielded a Kinact [3] of 0.46 min⁻¹.

With C/C=C(\c1ccccc1)c1ccc2nc(N)n(S(=O)(=O)C(C)C)c2c1 the IC50 [4] was 0.06 µg/mL (≈ 0.169 µM) and the Cmax [5] was 14 to 140 ng/mL.

CC(c1cc2ccccc2s1)N(O)C(N)=O (stereo unspecified) [ZILEUTON] gave a Vmax [11] of 1.2 nmol/min/mg, a clearance [12] of 14 mL/min/kg and a half-life [2] of 24 min.

Molecule [N-]=[N+]=C1C=NC(=O)NC1=O has a Kinact [3] of 1.68 min⁻¹.

B1: Thymidine kinase, cytosolic (Homo sapiens) (protein)
chain: MSCINLPTVLPGSPSKTRGQIQVILGPMFSGKSTELMRRVRRFQIAQYKCLVIKYAKDTRYSSSFCTHDRNTMEALPACLLRDVAQEALGVAVIGIDEGQFFPDIVEFCEAMANAGKTVIVAALDGTFQRKPFGAILNLVPLAESVVKLTAVCMECFREAAYTKRLGTEKEVEVIGGADKYHSVCRLCYFKKASGQPAGPDNKENCPVPGKPGEAVAARKLFAPQQILQCSPAN
B1 gave a Km [24] of 53 µM.
